The test concerns Blumeria (Erysiphe) graminis DC. f.sp. tritici E. Marchal. Put plainly: Curative and residual control test, Wheat Powdery Mildew (WPM). Format: in vivo. To be noted: read-out: Disease control (% efficacy). The text has this:
• (a) Wheat Powdery Mildew (WPM): HOST: Wheat (Triticum aestivum L.) variety Kanzler PATHOGEN: Blumeria (Erysiphe) graminis DC. f.sp. tritici E. Marchal • (b) Cucumber Powdery Mildew (QPM): HOST: Cucumber (Cucumis sativus L.) variety Bush pickle PATHOGEN: Erysiphe cichoracearum DC
This test procedure is for curative and residual control of powdery mildew diseases. • 1. Wheat seed (approximately 8-10/pot) or cucumber seed (1 seed / pot) is planted in 6 cm diameter plastic pots and maintained in the greenhouse. • 2. When the primary leaf (wheat) or the cotyledons (cucumber) is/are fully expanded, formulated test compounds are sprayed with a single nozzle overhead track sprayer at a rate of 200 l/ha. Plants are then allowed to air-dry. • 3. Inoculation precedes treatment by 2 or 3 days in the case of curative evaluations and follows treatment by 3 or 4 days in case of residual evaluations. For inoculation, plants are set up on greenhouse benches with bottom watering mats and inoculated by dusting them with conidia from powdery mildew infected plants (stock cultures at an age of 10-14 days). Between inoculation and treatment for curative evaluations and between treatment and inoculation for residual evaluations, plants are maintained in the greenhouse with bottom watering. • 4. Disease on the primary leaf (wheat) or on the cotyledons (cucumber) as percent leaf area with disease symptoms/signs is evaluated about 7 days after inoculation. In the case of wheat, the tips and bases of the leaves are excluded from the evaluation. Percent disease control is then calculated by the following formula: % disease control = 100 -(% infection in treated plants)/(% infection in untreated plants)x 100 [formula]
• 1. Technical compounds are formulated in a solvent/surfactant system consisting of 5% acetone and 0.05% Tween 20 in deionized water. Compounds are dissolved in acetone prior to addition of the water; the Tween 20 can be added through either the acetone or the water. Dilutions are made using the solvent/surfactant system. Formulated compounds are prepared using deionized water. • 2. Two kinds of controls are included: • Plants treated with the solvent/surfactant solution and inoculated (Solvent Blank). • Untreated plants which are inoculated (Inoculated Control).

Where two headings read alike, the source gives them in different places.

With `COc1cc(C)c(C(=O)c2c(C)cccc2OC)c(OC)c1OC` [Example 1, 6,6'-dimethyl-2,2',3',4'-tetramethoxy-benzophenone], the percent disease control at 12.5 ppm runs as follows: (48 h, WPM 2 da C (2 day curative), 12,5 ppm, Test A) 69%; (72 h, WPM 3 da R (3 day residual), 12,5 ppm, Test A) 90%. For the same compound, the Emax at 12.5 ppm is, setting by setting: (48 h, WPM 2 da C (2 day curative), 12,5 ppm, Test B) 52%; (72 h, WPM 3 da R (3 day residual), 12,5 ppm, Test B) 100%. Moreover, the percent disease control at 125 ppm was 79% (48 h, WPM 2 da C (2 day curative), 125 ppm, Test A); 100% (72 h, WPM 3 da R (3 day residual), 125 ppm, Test A); 100% (72 h, WPM 3 da R (3 day residual), 125 ppm, Test B). Besides, the Emax at 125 ppm (48 h, WPM 2 da C (2 day curative), 125 ppm, Test B) was 65%. For the same compound, the percent disease control at 1250 ppm came out at 88% (48 h, WPM 2 da C (2 day curative), 1250 ppm, Test A); 100% (72 h, WPM 3 da R (3 day residual), 1250 ppm, Test A); 100% (72 h, WPM 3 da R (3 day residual), 1250 ppm, Test B). Further, the Emax at 1250 ppm (48 h, WPM 2 da C (2 day curative), 1250 ppm, Test B) worked out at 85%.

The record behind these values is patent EP0897904B1, “Fungicidal 2-methoxybenzophenones” (BASF AKTIENGESELLSCHAFT, priority 1997, dated 1999).
